# Values joined by “and” are separate entries in the source; they are usually repeats but may differ in a detail not shown here. Identical values can stand only once.
# Key:
# [1] = test system: participants with IPF; test: Phase 2 study, IPF cohort: safety and blood pressure monitoring; format: in vivo, human; settings: for Nadir post-dose mean reduction from baseline in sitting SBP: Day 1, 2 hours post-dose
# Description: A total of 278 participants with IPF were randomized and 276 participants were treated as of the final analyses data cut-off (4 Aug. 2022). Male and female participants […] with IPF and percent predicted forced vital capacity (ppFVC) […] and percent predicted DLCO (ppDLCO)≥25%; diagnosed within 7 years of screening; having a centrally-read chest HRCT obtained at screening that was consistent with UIP or probable UIP, or having a lung biopsy consistent with UIP, were eligible to enter the study. The mean baseline ppFVC for all subjects was 76.5%. In the primary IPF cohort, participants were randomized (1:1:1) to receive 30 mg or 60 mg Compound A or placebo (PBO) twice daily for 26 weeks. Participants were stratified by standard of care (SoC) IPF therapy (pirfenidone versus nintedanib versus none) and region (Japan versus Rest of World) at randomization.
# Patient experiences any of the following, confirmed by retest within 15 minutes: • Seated systolic blood pressure <85 mmHg • Seated diastolic blood pressure <55 mmHg • Orthostatic hypotension
# (§1) Patient experiences symptoms that, in the investigator's opinion, could be associated with a reduction in blood pressure and also experiences at least one of the following, confirmed by retest within 15 minutes: • Seated systolic blood pressure <100 mmHg or seated diastolic blood pressure <60 mmHg • Decrease of seated systolic blood pressure of ≥20 mmHg from the previous visit or decrease of seated diastolic blood pressure of ≥10 mmHg from the previous visit • Orthostatic hypotension • Orthostatic tachycardia
# [2] = test system: participants with PPF; test: Phase 2 study, PPF cohort: safety and blood pressure; format: in vivo, human; settings: for Treatment discontinuations: 26-week treatment phase; for Nadir postdose reduction from baseline in mean seated systolic blood pressure: day 1
# Description: A total of 123 participants with PPF were randomized. Participants (age ≥21 years) were randomized (1:1:1) to receive 30 mg or 60 mg Compound A or PBO twice daily for 26 weeks. […] Immunosuppressive medications (mycophenolate mofetil, mycophenolic acid, azathioprine and/or tacrolimus) were permitted only if dosing is stable for ≥6 months prior to screening. If receiving antifibrotic agents pirfenidone or nintedanib, patients had to receive a stable dosage for ≥3 months prior to screening and during the screening period; if not receiving pirfenidone or nintedanib, patients had to be naive to both drugs or not have received either 4 weeks prior to Day 1. A total of 47 (38.2%) subjects were receiving antifibrotic treatment (with or without immunosuppression therapy). Of those subjects, 34 were being treated with nintedanib and 13 with pirfenidone. Participants were stratified by usual interstitial pneumonia (UIP) pattern (presence versus absence) and background therapy (antifibrotics+/−ILD-targeted immunosuppression versus ILD-targeted immunosuppression alone versus none). UIP pattern was present in 52% of subjects and unclassifiable ILD was the most common disease categorization.
# Patient is experiencing any of the following, confirmed by retest within 15 minutes: • Seated systolic blood pressure <85 mmHg • Seated diastolic blood pressure <55 mmHg • Orthostatic hypotension
# as §1, with “Patient is experiencing” for “Patient experiences”, “and is” for “and”, “also experiencing” for “also experiences”
# [3] = Active Total (30 mg and 60 mg groups)
smiles,measurement,setting,value
"CCCN(C)C(=O)OCc1c(-c2ccc(O[C@H]3CCC[C@H](C(=O)O)C3)c(C)n2)nnn1C [Compound A, (1S,3S)-3-((2-methyl-6-(1-methyl-5-(((methyl(propyl)carbamoyl)-oxy)methyl)-1H-1,2,3-triazol-4-yl)pyridin-3-yl)oxy)cyclohexane-1-carboxylic acid]",Dose reductions to 10 mg BID due to protocol-defined low BP criteria,[1]; 30 mg BID,7 (7.7%) n (%) and 7 (7.7) n (%)
same,Treatment discontinuations due to TEAEs,[1]; 30 mg BID,9.9%
same,Asymptomatic low blood pressure,[1]; 30 mg BID (N = 91),22 (24.2%) n (%) and 22 (24.2) n (%)
same,Orthostatic hypotension observed in asymptomatic low BP,[1]; 30 mg BID (N = 91),21 (23.1%) n (%) and 21 (23.1) n (%)
same,Orthostatic hypotension observed in symptomatic low BP,[1]; 30 mg BID (N = 91),9 (9.9%) n (%) and 9 (9.9) n (%)
same,Orthostatic intolerance,[1]; 30 mg BID (N = 91),10 (11.0%) n (%) and 10 (11.0) n (%)
same,Subjects discontinuing study treatment due to a TEAE,[1]; 30 mg BID (N = 91),9 (9.9%) n (%) and 9 (9.9) n (%)
same,Subjects who died,[1]; 30 mg BID (N = 91),4 (4.4%) n (%) and 4 (4.4) n (%)
same,Subjects who died due to a TEAE,[1]; 30 mg BID (N = 91),3 (3.3%) n (%) and 3 (3.3) n (%)
same,Subjects with at least one AESI,[1]; 30 mg BID (N = 91),18 (19.8%) n (%) and 18 (19.0) n (%)
same,Subjects with at least one TEAE,[1]; 30 mg BID (N = 91),69 (75.8%) n (%) and 69 (75.8) n (%)
same,Subjects with at least one TEAE related to the study treatment,[1]; 30 mg BID (N = 91),23 (25.3%) n (%) and 23 (25.3) n (%)
same,Subjects with at least one TESAE,[1]; 30 mg BID (N = 91),10 (11.0%) n (%) and 10 (11.0) n (%)
same,Symptomatic low blood pressure,[1]; 30 mg BID (N = 91),11 (12.1%) n (%) and 11 (12.1) n (%)
same,Nadir post-dose mean reduction from baseline in sitting SBP,[1]; 30 mg,−10.5 mmHg
same,Dose reductions to 10 mg BID due to protocol-defined low BP criteria,[1]; 60 mg BID,6 (6.5%) n (%) and 6 (6.5) n (%)
same,Treatment discontinuations due to TEAEs,[1]; 60 mg BID,6.5%
same,Asymptomatic low blood pressure,[1]; 60 mg BID (N = 93),17 (18.3%) n (%) and 17 (18.3) n (%)
same,Orthostatic hypotension observed in asymptomatic low BP,[1]; 60 mg BID (N = 93),14 (15.1%) n (%) and 14 (15.1) n (%)
same,Orthostatic hypotension observed in symptomatic low BP,[1]; 60 mg BID (N = 93),5 (5.4%) n (%) and 5 (5.4) n (%)
same,Orthostatic intolerance,[1]; 60 mg BID (N = 93),2 (2.2%) n (%) and 2 (2.2) n (%)
same,Subjects discontinuing study treatment due to a TEAE,[1]; 60 mg BID (N = 93),6 (6.5%) n (%) and 6 (6.5) n (%)
same,Subjects who died,[1]; 60 mg BID (N = 93),5 (5.4%) n (%) and 5 (5.4) n (%)
same,Subjects who died due to a TEAE,[1]; 60 mg BID (N = 93),4 (4.3%) n (%) and 4 (4.3) n (%)
same,Subjects with at least one AESI,[1]; 60 mg BID (N = 93),9 (9.7%) n (%) and 9 (9.7) n (%)
same,Subjects with at least one TEAE,[1]; 60 mg BID (N = 93),69 (74.2%) n (%) and 69 (74.2) n (%)
same,Subjects with at least one TEAE related to the study treatment,[1]; 60 mg BID (N = 93),25 (26.9%) n (%) and 25 (26.9) n (%)
same,Subjects with at least one TESAE,[1]; 60 mg BID (N = 93),10 (10.8%) n (%) and 10 (10.8) n (%)
same,Symptomatic low blood pressure,[1]; 60 mg BID (N = 93),6 (6.5%) n (%) and 6 (6.5) n (%)
same,Risk of orthostatic and low BP events compared to PBO,[1]; 60 mg twice daily (BID),"not associated with any increased risk of orthostatic intolerance, orthostatic hypotension, orthostatic tachycardia, or symptomatic or asymptomatic low BP"
same,Nadir post-dose mean reduction from baseline in sitting SBP,[1]; 60 mg,−14.1 mmHg
same,Subjects discontinuing study treatment due to a TEAE,[1]; [3],15 (8.2) n (%)
same,Subjects who died,[1]; [3],9 (4.9) n (%)
same,Subjects who died due to a TEAE,[1]; [3],7 (3.8) n (%)
same,Subjects with at least one AESI,[1]; [3],27 (14.7) n (%)
same,Subjects with at least one TEAE,[1]; [3],138 (75.0) n (%)
same,Subjects with at least one TEAE related to the study treatment,[1]; [3],48 (26.1) n (%)
same,Subjects with at least one TESAE,[1]; [3],20 (10.9) n (%)
same,Hepatobiliary toxicity,[2]; PPF cohort,No hepatobiliary toxicity
same,Tolerability and safety findings,[2]; PPF cohort,"well-tolerated, demonstrated no unexpected safety findings"
same,Low BP thresholds (events),"[2]; PPF, 30 mg",30%
same,Asymptomatic blood pressure reduction (prespecified criteria),"[2]; PPF, 30 mg BID (n = 40)",9 (22.5) no. (%)
same,COVID-19,"[2]; PPF, 30 mg BID (n = 40)",6 (15.0) no. (%)
same,Cough,"[2]; PPF, 30 mg BID (n = 40)",3 (7.5) no. (%)
same,Deaths due to TEAEs,"[2]; PPF, 30 mg BID (n = 40)",0 no. (%)
same,Diarrhea,"[2]; PPF, 30 mg BID (n = 40)",6 (15.0) no. (%)
same,Discontinuations due to TEAEs,"[2]; PPF, 30 mg BID (n = 40)",1 no. (%) and 1 (2.5) no. (%)
same,Dizziness,"[2]; PPF, 30 mg BID (n = 40)",0 no. (%)
same,Dose reductions,"[2]; PPF, 30 mg BID (n = 40)",6 (15.0) no. (%)
same,Dyspnea,"[2]; PPF, 30 mg BID (n = 40)",2 (5.0) no. (%)
same,Hypertension,"[2]; PPF, 30 mg BID (n = 40)",0 no. (%)
same,Hypotension,"[2]; PPF, 30 mg BID (n = 40)",4 (10.0) no. (%)
same,Nausea,"[2]; PPF, 30 mg BID (n = 40)",4 (10.0) no. (%)
same,Orthostatic hypotension (TEAE),"[2]; PPF, 30 mg BID (n = 40)",2 (5.0) no. (%)
same,Orthostatic hypotension within asymptomatic blood pressure reduction,"[2]; PPF, 30 mg BID (n = 40)",6 (15.0) no. (%)
same,Orthostatic hypotension within symptomatic blood pressure reduction,"[2]; PPF, 30 mg BID (n = 40)",1 (2.5) no. (%)
same,Rash,"[2]; PPF, 30 mg BID (n = 40)",3 (7.5) no. (%)
same,Symptomatic blood pressure reduction (prespecified criteria),"[2]; PPF, 30 mg BID (n = 40)",2 (5.0) no. (%)
same,Vomiting,"[2]; PPF, 30 mg BID (n = 40)",3 (7.5) no. (%)
same,≥1 TEAE,"[2]; PPF, 30 mg BID (n = 40)",33 (82.5) no. (%)
same,≥1 TEAE related to study drug,"[2]; PPF, 30 mg BID (n = 40)",7 (17.5) no. (%)
same,≥1 TESAE,"[2]; PPF, 30 mg BID (n = 40)",4 (10.0) no. (%)
same,Treatment discontinuations,"[2]; PPF, 30 mg BID",7.5%
same,Nadir postdose reduction from baseline in mean seated systolic blood pressure,"[2]; PPF, 30 mg",−10.7 mmHg
same,Asymptomatic blood pressure reduction (prespecified criteria),"[2]; PPF, 60 mg BID (n = 42)",13 (31.0) no. (%)
same,COVID-19,"[2]; PPF, 60 mg BID (n = 42)",6 (14.3) no. (%)
same,Cough,"[2]; PPF, 60 mg BID (n = 42)",5 (11.9) no. (%)
same,Deaths due to TEAEs,"[2]; PPF, 60 mg BID (n = 42)",0 no. (%)
same,Diarrhea,"[2]; PPF, 60 mg BID (n = 42)",3 (7.1) no. (%)
same,Discontinuations due to TEAEs,"[2]; PPF, 60 mg BID (n = 42)",0 no. (%)
same,Dizziness,"[2]; PPF, 60 mg BID (n = 42)",4 (9.5) no. (%)
same,Dose reductions,"[2]; PPF, 60 mg BID (n = 42)",5 (11.9) no. (%)
same,Dyspnea,"[2]; PPF, 60 mg BID (n = 42)",0 no. (%)
same,Hypertension,"[2]; PPF, 60 mg BID (n = 42)",1 (2.4) no. (%)
same,Hypotension,"[2]; PPF, 60 mg BID (n = 42)",3 (7.1) no. (%)
same,Nausea,"[2]; PPF, 60 mg BID (n = 42)",1 (2.4) no. (%)
same,Orthostatic hypotension (TEAE),"[2]; PPF, 60 mg BID (n = 42)",4 (9.5) no. (%)
same,Orthostatic hypotension within asymptomatic blood pressure reduction,"[2]; PPF, 60 mg BID (n = 42)",11 (26.2) no. (%)
same,Orthostatic hypotension within symptomatic blood pressure reduction,"[2]; PPF, 60 mg BID (n = 42)",4 (9.5) no. (%)
same,Rash,"[2]; PPF, 60 mg BID (n = 42)",0 no. (%)
same,Symptomatic blood pressure reduction (prespecified criteria),"[2]; PPF, 60 mg BID (n = 42)",6 (14.3) no. (%)
same,Vomiting,"[2]; PPF, 60 mg BID (n = 42)",0 no. (%)
same,≥1 TEAE,"[2]; PPF, 60 mg BID (n = 42)",28 (66.7) no. (%)
same,≥1 TEAE related to study drug,"[2]; PPF, 60 mg BID (n = 42)",11 (26.2) no. (%)
same,≥1 TESAE,"[2]; PPF, 60 mg BID (n = 42)",5 (11.9) no. (%)
same,Treatment discontinuations,"[2]; PPF, 60 mg BID",4.8%
same,Orthostatic hypotension (asymptomatic and symptomatic) versus other groups,"[2]; PPF, 60 mg group",higher in the 60 mg group than for other groups
same,Nadir postdose reduction from baseline in mean seated systolic blood pressure,"[2]; PPF, 60 mg",−12.7 mmHg

# From patent US20240216352A1 (priority 2022, published 2024)
